Measurements from PubChem BioAssay AID1963446 (Molecular Pharmacology Branch, DTP, NCI, 2024).
pIC50: −log10 of the molar value.

Test system: 993429-296-R-J1-PDC complex spheroid growth, percent test/control
Assay: Anticancer human tumor 993429-296-R-J1-PDC patient-derived uterine sarcoma cell line growth inhibition [Asc]
Details: for pIC50: curve of first compound; for viability, T/C: stronger effect = lower value
Procedure, shortened: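 Complex spheroids combining tumor cells with HUVEC endothelial cells and human MSCs, at 37 degrees C, 5% CO2; agents tested alone or combined, half-log dilutions from at or near clinical Cmax, or 10 microM if Cmax unknown.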
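Also: spheroids exposed to compounds for seven days.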

Cc1nc(N2CCC3(CC2)COC(C)C3N)c(CO)nc1Sc1ccnc(N)c1Cl (stereo not given) + CCN1C(C(=O)NC23CCC(C(=O)O)(CC2)CC3)C(c2cccc(Cl)c2F)C2(C(=O)Nc3cc(Cl)ccc32)C12CCCCC2
pIC50 (second compound 0.03 µM): 6.68
pIC50 (second compound 0.0949 µM): 6.80
pIC50 (second compound 0.3 µM): 6.75
pIC50 (second compound 0.949 µM): 6.84
pIC50 (second compound 3 µM): 6.98
viability, T/C (second compound 0.03 µM, first compound 0.00949 µM): 89.3%
viability, T/C (second compound 0.03 µM, first compound 0.03 µM): 86.2%
viability, T/C (second compound 0.03 µM, first compound 0.0949 µM): 68.7%
viability, T/C (second compound 0.03 µM, first compound 0.3 µM): 41.5%
viability, T/C (second compound 0.03 µM, first compound 0.949 µM): 33.3%
viability, T/C (second compound 0.03 µM, first compound 3 µM): 29.6%
viability, T/C (second compound 0.0949 µM, first compound 0.00949 µM): 92.5%
viability, T/C (second compound 0.0949 µM, first compound 0.03 µM): 71.7%
viability, T/C (second compound 0.0949 µM, first compound 0.0949 µM): 65.2%
viability, T/C (second compound 0.0949 µM, first compound 0.3 µM): 35.3%
viability, T/C (second compound 0.0949 µM, first compound 0.949 µM): 30.2%
viability, T/C (second compound 0.0949 µM, first compound 3 µM): 29.2%
viability, T/C (second compound 0.3 µM, first compound 0.00949 µM): 87.7%
viability, T/C (second compound 0.3 µM, first compound 0.03 µM): 79.8%
viability, T/C (second compound 0.3 µM, first compound 0.0949 µM): 59%
viability, T/C (second compound 0.3 µM, first compound 0.3 µM): 42.6%
viability, T/C (second compound 0.3 µM, first compound 0.949 µM): 29.2%
viability, T/C (second compound 0.3 µM, first compound 3 µM): 26.8%
viability, T/C (second compound 0.949 µM, first compound 0.00949 µM): 86.7%
viability, T/C (second compound 0.949 µM, first compound 0.03 µM): 68.5%
viability, T/C (second compound 0.949 µM, first compound 0.0949 µM): 55.9%
viability, T/C (second compound 0.949 µM, first compound 0.3 µM): 43.1%
viability, T/C (second compound 0.949 µM, first compound 0.949 µM): 27.6%
viability, T/C (second compound 0.949 µM, first compound 3 µM): 22.9%
viability, T/C (second compound 3 µM, first compound 0.00949 µM): 75.2%
viability, T/C (second compound 3 µM, first compound 0.03 µM): 69.9%
viability, T/C (second compound 3 µM, first compound 0.0949 µM): 50.1%
viability, T/C (second compound 3 µM, first compound 0.3 µM): 34%
viability, T/C (second compound 3 µM, first compound 0.949 µM): 28.8%
viability, T/C (second compound 3 µM, first compound 3 µM): 21.6%

NC(=O)C(=Cn1cnc(-c2cc(C(F)(F)F)cc(C(F)(F)F)c2)n1)c1cncnc1 + CNC(C)C(=O)NC1CN(S(=O)(=O)c2cccc(S(=O)(=O)N3CCC4CCC(C(=O)NC(c5ccccc5)c5ccccc5)N4C(=O)C(NC(=O)C(C)NC)C3)c2)CCC2CCC(C(=O)NC(c3ccccc3)c3ccccc3)N2C1=O
pIC50 (second compound 0.01 µM): 7.89
pIC50 (second compound 0.0316 µM): 7.95
pIC50 (second compound 0.1 µM): 8.05
pIC50 (second compound 0.316 µM): 8.22
pIC50 (second compound 1 µM): 8.09
viability, T/C (second compound 0.01 µM, first compound 0.000949 µM): 62.7%
viability, T/C (second compound 0.01 µM, first compound 0.003 µM): 65.6%
viability, T/C (second compound 0.01 µM, first compound 0.00949 µM): 55.4%
viability, T/C (second compound 0.01 µM, first compound 0.03 µM): 33.1%
viability, T/C (second compound 0.01 µM, first compound 0.0949 µM): 14.9%
viability, T/C (second compound 0.01 µM, first compound 0.3 µM): 8.47%
viability, T/C (second compound 0.0316 µM, first compound 0.000949 µM): 63.6%
viability, T/C (second compound 0.0316 µM, first compound 0.003 µM): 63.1%
viability, T/C (second compound 0.0316 µM, first compound 0.00949 µM): 52.1%
viability, T/C (second compound 0.0316 µM, first compound 0.03 µM): 33%
viability, T/C (second compound 0.0316 µM, first compound 0.0949 µM): 14.9%
viability, T/C (second compound 0.0316 µM, first compound 0.3 µM): 8%
viability, T/C (second compound 0.1 µM, first compound 0.000949 µM): 58.3%
viability, T/C (second compound 0.1 µM, first compound 0.003 µM): 61.1%
viability, T/C (second compound 0.1 µM, first compound 0.00949 µM): 48.1%
viability, T/C (second compound 0.1 µM, first compound 0.03 µM): 33.3%
viability, T/C (second compound 0.1 µM, first compound 0.0949 µM): 16%
viability, T/C (second compound 0.1 µM, first compound 0.3 µM): 4.45%
viability, T/C (second compound 0.316 µM, first compound 0.000949 µM): 57.6%
viability, T/C (second compound 0.316 µM, first compound 0.003 µM): 60%
viability, T/C (second compound 0.316 µM, first compound 0.00949 µM): 43.7%
viability, T/C (second compound 0.316 µM, first compound 0.03 µM): 29%
viability, T/C (second compound 0.316 µM, first compound 0.0949 µM): 15.8%
viability, T/C (second compound 0.316 µM, first compound 0.3 µM): 8.88%
viability, T/C (second compound 1 µM, first compound 0.000949 µM): 52%
viability, T/C (second compound 1 µM, first compound 0.003 µM): 62.6%
viability, T/C (second compound 1 µM, first compound 0.00949 µM): 47.8%
viability, T/C (second compound 1 µM, first compound 0.03 µM): 28.5%
viability, T/C (second compound 1 µM, first compound 0.0949 µM): 14.1%
viability, T/C (second compound 1 µM, first compound 0.3 µM): 5.77%

CCN1CCN(Cc2ccc(Nc3ncc(F)c(-c4cc(F)c5nc(C)n(C(C)C)c5c4)n3)nc2)CC1 + CNC(C)C(=O)NC1CN(S(=O)(=O)c2cccc(S(=O)(=O)N3CCC4CCC(C(=O)NC(c5ccccc5)c5ccccc5)N4C(=O)C(NC(=O)C(C)NC)C3)c2)CCC2CCC(C(=O)NC(c3ccccc3)c3ccccc3)N2C1=O
pIC50 (second compound 0.01 µM): < 6.00
pIC50 (second compound 0.0316 µM): < 6.00
pIC50 (second compound 0.1 µM): < 6.00
pIC50 (second compound 0.316 µM): > 8.50
pIC50 (second compound 1 µM): < 6.00
viability, T/C (second compound 0.01 µM, first compound 0.00316 µM): 58.4%
viability, T/C (second compound 0.01 µM, first compound 0.01 µM): 66.1%
viability, T/C (second compound 0.01 µM, first compound 0.0316 µM): 64%
viability, T/C (second compound 0.01 µM, first compound 0.1 µM): 68.4%
viability, T/C (second compound 0.01 µM, first compound 0.316 µM): 67.7%
viability, T/C (second compound 0.01 µM, first compound 1 µM): 76%
viability, T/C (second compound 0.0316 µM, first compound 0.00316 µM): 54.1%
viability, T/C (second compound 0.0316 µM, first compound 0.01 µM): 63.4%
viability, T/C (second compound 0.0316 µM, first compound 0.0316 µM): 59.5%
viability, T/C (second compound 0.0316 µM, first compound 0.1 µM): 53.6%
viability, T/C (second compound 0.0316 µM, first compound 0.316 µM): 71.4%
viability, T/C (second compound 0.0316 µM, first compound 1 µM): 77.4%
viability, T/C (second compound 0.1 µM, first compound 0.00316 µM): 52%
viability, T/C (second compound 0.1 µM, first compound 0.01 µM): 54%
viability, T/C (second compound 0.1 µM, first compound 0.0316 µM): 56.2%
viability, T/C (second compound 0.1 µM, first compound 0.1 µM): 54%
viability, T/C (second compound 0.1 µM, first compound 0.316 µM): 59.8%
viability, T/C (second compound 0.1 µM, first compound 1 µM): 62.4%
viability, T/C (second compound 0.316 µM, first compound 0.00316 µM): 45.3%
viability, T/C (second compound 0.316 µM, first compound 0.01 µM): 46.2%
viability, T/C (second compound 0.316 µM, first compound 0.0316 µM): 41%
viability, T/C (second compound 0.316 µM, first compound 0.1 µM): 53.2%
viability, T/C (second compound 0.316 µM, first compound 0.316 µM): 69%
viability, T/C (second compound 0.316 µM, first compound 1 µM): 70%
viability, T/C (second compound 1 µM, first compound 0.00316 µM): 53.5%
viability, T/C (second compound 1 µM, first compound 0.01 µM): 58.7%
viability, T/C (second compound 1 µM, first compound 0.0316 µM): 38.9%
viability, T/C (second compound 1 µM, first compound 0.1 µM): 51.4%
viability, T/C (second compound 1 µM, first compound 0.316 µM): 49.6%
viability, T/C (second compound 1 µM, first compound 1 µM): 60.3%
